# Assay results taken from patent US7592003B2, “Regulation of toll-like receptors on stem cells” (Oklahoma Medical Research Foundation, priority 2005, dated 2009).
# How the values were obtained:
# GMP = assay: Culture of sorted GMP for 72 h, morphology and Mac-1/F4/80 flow cytometry; format: cell-based, mouse
# Method: FIGS. 5A-C—TLR stimulation drives differentiation of GMP into F4/80^hi monocytes/macrophages. (FIG. 5A) These photomicrographs were prepared with Giemsa-May-Grünwald stained cytocentrifuged slides. ([…]) Sorted GMP were stimulated with LPS (1 μg/ml), Pam3CSK4 (100 ng/ml), M-CSF, or GM-CSF. After 72 h in culture, cells were analyzed by flow cytometry for expression of F4/80 and Mac-1. Percentages indicate the frequencies of Mac-1^lo F4/80^lo or Mac-1^hi F4/80^hi cells. CD86, Gr-1, or CD62L were analyzed by flow cytometry on Mac-1^hi F4/80^hi cells. Open histograms depict staining with the appropriate isotype matched Abs. The results are representative of those obtained in two independent experiments. (FIG. 5C) The bar graphs depict cell yields of Mac-1^lo F4/80^lo or Mac-1^hi F4/80^hi cells. The data represent mean values with standard deviations from triplicate cultures and are representative of three independent experiments.
# Serum-free, stromal cell-free cell cultures. Round-bottomed 96-well plates or flat-bottomed 24-well plates (Corning Inc.) were used for these cultures. […]
# Cell morphology. Cytospins of cultured progenitor cells were stained with Giemsa-May-Grünwald (Sigma Diagnostics, St. Louis, Mo.), mounted in Immersol (Zeiss, Thornwood, N.Y.), and analyzed on a Zeiss Axioplan 2i microscope with a 100×/1.4 NA Plan Achromat objective. […]
# CLP = assay: Serum-free, stromal cell-free culture of CLP with SCF, FL and IL-7, CD19/Mac-1 flow cytometry; format: cell-based, mouse
# Method: FIGS. 6A-D—TLR stimulation allows lymphoid biased progenitors to produce myeloid dendritic cells at the expense of B lymphopoiesis. (FIG. 6A) Sorted CLP (5,000/well) from C57BL/6 or MyD88^−/− mice were stimulated in X-VIVO15 with medium alone, LPS (10 μg/ml) or Pam3CSK4 (100 ng/ml) plus SCF, FL and IL-7. After 7 days in culture, cells were analyzed by flow cytometry for expression of CD19and Mac-1 (left). The bar graphs depict cell yields for CD19^+ cells or Mac-1^+ cells (right) and the data represent mean values with standard deviations from triplicate cultures (*P<0.02). The results are representative of those obtained in five independent experiments. (FIG. 6B) Subsets of the recovered cells described in FIG. 6A were sorted and used to prepare Giemsa stained slides. (FIG. 6C) Cultured cells from C57BL/6 mice were also analyzed by flow cytometry for expression of Gr-1 and CD11c. (FIG. 6D) Sorted CLP from C57BL/6 mice were cultured in the presence of SCF, FL and IL-7 with a range of concentrations of LPS or combination of recombinant mouse CD14-Fc protein (1 μg/ml) plus LPS. After 7 days in culture, cells were analyzed by flow cytometry for expression of CD19 and Mac-1 (left). The bar graph depicts cell yields for CD19^+ cells or Mac-1^+ cells (right). Data represent mean values with standard deviations from triplicate cultures (*P<0.003). […]
substance,measurement,setting,value
Pam3CSK4,CD11b/Mac-1 expression of cells produced from GMP,GMP,Virtually all cells produced in response to LPS or Pam3CSK4 were CD11b/Mac-1^+
same,Morphology of recovered cells,"GMP; GMP, Giemsa-May-Grünwald",less homogeneous in appearance
same,"Phenotype (CD11c, Gr-1) of cells produced from CLP",CLP; 7 days,Gr-1^− but less homogenous
same,Cell types emerging from CLP (CD19+ vs Mac-1+),"CLP; with SCF, FL and IL-7, 7 days",a mixture of the two cell types
